This passage reports EC50 and AC50 results from ChEMBL document CHEMBL1201862, “PubChem BioAssay data set” (2004).

Activity calls are given as the source filed them. Rule as the data show it, for most assays here: actives have a measured EC50 and inactives only a lower limit.

One may read the EC50 as the concentration needed to bring the measured effect to its halfway point. What is called AC50 is the midpoint of the concentration-response curve, whichever way the signal moves.

One assay has as its target T1, Streptokinase A (Streptococcus pyogenes serotype M1, UniProt P10520).
T1 sequence (P10520 whole entry): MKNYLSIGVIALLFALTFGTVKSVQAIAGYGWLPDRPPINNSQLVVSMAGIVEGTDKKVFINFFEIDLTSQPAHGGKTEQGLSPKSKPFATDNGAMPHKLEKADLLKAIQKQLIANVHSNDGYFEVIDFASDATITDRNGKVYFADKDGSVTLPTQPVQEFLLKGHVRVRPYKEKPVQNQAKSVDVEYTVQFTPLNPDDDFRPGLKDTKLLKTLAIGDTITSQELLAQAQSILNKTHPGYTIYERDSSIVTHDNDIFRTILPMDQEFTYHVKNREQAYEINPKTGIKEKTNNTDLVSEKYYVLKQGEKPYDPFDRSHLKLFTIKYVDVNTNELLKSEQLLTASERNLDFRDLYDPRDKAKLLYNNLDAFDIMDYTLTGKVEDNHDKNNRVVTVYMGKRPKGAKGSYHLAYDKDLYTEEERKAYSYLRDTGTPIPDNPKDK
Put plainly: S. pyogenes streptokinase expression inhibitors, potency, dose response, plasminogen activation absorbance, OD405 (AID 1914).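 Also: secreted streptokinase activity via plasminogen activation per viability signal from cell pellet.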 Format: functional, Streptococcus pyogenes M1 GAS.

Another assay concerns Streptococcus. The experiment in a line: Group A Streptococcus viability loss, dose response, counter-screen for streptokinase expression inhibitor project, luminescence, BacTiterGlo (AID 1915).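 Also: potency for reduction of bacterial viability or growth.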 The assay is classed as functional, organism-based. A general note: Counterscreens check selectivity or assay interference.
The subject of assay [1] is Streptococcus sp. 'group A'. The experiment in a line: growth inhibition of control SK(-) GAS strain, dose response, counter-screen for streptokinase expression inhibitor project, luminescence, kanamycin, BacTiterGlo, confirmation (AID 1900). Format: functional, organism-based.
A short description of assay [2]: inhibitors of intracellular T. cruzi replication, confirmation, NIH3T3 host cells, beta-gal luminescence (AID 2044).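 Also: intracellular parasites grown in NIH/3T3 mouse fibroblasts as host cells; luminescent beta-galactosidase reporter signal from transgenic T. cruzi replicating inside host cells; inhibitors lower the luminescence signal.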 The assay is classed as functional, cell-based.
Assay [3] in a line: cytotoxicity toward NIH3T3 fibroblasts, dose response, counter-screen, cell-based, ATP luminescence, mouse fibroblasts (AID 2010).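 Also: cells exposed to compound for about 90 hours before reading.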 The assay is classed as functional.
In the next assay the target is Cytochrome P450 2C9 (Homo sapiens, UniProt P11712).
Sequence of Cytochrome P450 2C9 (P11712 whole entry): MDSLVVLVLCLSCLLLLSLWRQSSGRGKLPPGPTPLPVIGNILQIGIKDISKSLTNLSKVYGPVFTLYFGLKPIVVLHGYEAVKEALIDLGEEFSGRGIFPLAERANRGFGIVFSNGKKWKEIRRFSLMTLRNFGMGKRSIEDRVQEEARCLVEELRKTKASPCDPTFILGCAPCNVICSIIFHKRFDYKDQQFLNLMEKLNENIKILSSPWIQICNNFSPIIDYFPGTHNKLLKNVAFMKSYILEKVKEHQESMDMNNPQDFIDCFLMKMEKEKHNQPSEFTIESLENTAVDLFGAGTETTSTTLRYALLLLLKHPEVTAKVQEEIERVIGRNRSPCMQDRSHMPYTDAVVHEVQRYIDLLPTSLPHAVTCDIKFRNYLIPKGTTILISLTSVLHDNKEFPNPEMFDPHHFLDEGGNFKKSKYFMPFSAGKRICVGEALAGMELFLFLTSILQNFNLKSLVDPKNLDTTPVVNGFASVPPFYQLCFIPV
Another assay deals with Cytochrome P450 2D6 (Homo sapiens, UniProt P10635).
Sequence of Cytochrome P450 2D6 (P10635 whole entry): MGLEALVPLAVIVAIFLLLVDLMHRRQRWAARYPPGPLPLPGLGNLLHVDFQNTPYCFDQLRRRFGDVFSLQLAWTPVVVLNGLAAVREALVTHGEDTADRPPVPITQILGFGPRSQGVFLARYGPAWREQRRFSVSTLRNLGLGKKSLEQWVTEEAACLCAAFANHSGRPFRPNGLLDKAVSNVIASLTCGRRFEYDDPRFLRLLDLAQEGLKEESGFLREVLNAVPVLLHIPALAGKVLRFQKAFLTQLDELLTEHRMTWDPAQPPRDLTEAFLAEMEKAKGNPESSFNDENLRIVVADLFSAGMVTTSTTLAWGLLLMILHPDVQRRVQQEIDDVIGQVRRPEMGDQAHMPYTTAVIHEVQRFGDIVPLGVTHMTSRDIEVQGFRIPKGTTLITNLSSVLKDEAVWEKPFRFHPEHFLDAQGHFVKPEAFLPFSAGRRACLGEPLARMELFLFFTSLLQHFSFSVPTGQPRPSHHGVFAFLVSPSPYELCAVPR

`CCCCCCOC(=O)/C=C/c1c(C)nc(O)nc1O`: the EC50 at Streptokinase A is > 150 µM (not active); with Streptococcus, 4.6 µM (active); in assay [1] it was 0.604 µM (active).

`CCn1cc([N+](=O)[O-])c(C(=O)N2N=C(c3ccc4ccccc4c3)CC2c2cc(Br)ccc2O)n1` (stereo not given): the EC50 in assay [2] was 2.19 µM (active); in assay [3], > 60 µM (inconclusive).

With `C/C(=N\NC(=O)COc1ccc(C)cc1C(C)C)c1cc2ccccc2o1`, the EC50 was 30.5 µM (active) at Streptokinase A, 24.1 µM (active) with Streptococcus and 15.5 µM (active) in assay [1].

For `COc1ccc(C(=O)/C=C2/c3ccccc3CC(C)(C)N2C)cc1`, the AC50 at Cytochrome P450 2C9 was 20 µM (inconclusive).

As to `O=C(CCCCn1c(=O)c2ccccc2n(CC(=O)NC2CCCC2)c1=O)NC1CCCC1`, on Cytochrome P450 2D6, the AC50 is 14.1 µM (inconclusive).

In the case of `O=C(Nc1cccc(F)c1)N1CC2(CCNCC2)C1`, the AC50 on Cytochrome P450 2D6 was 7.94 µM (inconclusive).

As to `O=S(=O)(N/N=C\C=C\c1ccccc1)c1ccc(Br)cc1`, on Cytochrome P450 2D6, the half-maximal activity concentration (AC50) was 22.4 µM (inconclusive).

For the compound `O=C1C=C(NC(=O)Nc2ccc(Cl)c(Cl)c2)CCC1`, the half-maximal effective concentration (EC50) at Streptokinase A is > 150 µM (not active); in the assay with Streptococcus, > 150 µM (not active); in assay [1], 18 µM (active).

With `COc1ccc2cc3cc(C(=O)NCCN4CCN(c5ccccc5F)CC4)oc3nc2c1`, the concentration at half-maximal activity (AC50) on Cytochrome P450 2D6 was 31.6 µM (inconclusive); at Cytochrome P450 2C9 it was 22.4 µM (inconclusive).

In the case of `COc1cc(F)ccc1CN1CCC(n2nccc2NC(=O)C2CCOC2)CC1` (stereo not given), the concentration for a half-maximal effect (EC50) (at Streptokinase A; in the assay with Streptococcus; in assay [1]) was > 150 µM (not active) throughout.

As for `Cc1ccc(CSCC(=O)N2CCN(c3ccc(F)cc3)CC2)cc1`, the values for the EC50 in assay [2] and in assay [3] were 2.18 µM (active) and > 60 µM (not active), respectively.

As for `Cc1ccc(/C(=N\O)c2oc3c(C)c4oc(=O)cc(C)c4cc3c2C)cc1`, the EC50 was 1.23 µM (active) in assay [2] and > 60 µM (not active) in assay [3].

For `CCc1ccc(-c2cc(C)no2)cc1S(=O)(=O)Nc1cccc(CN2CCCC2)c1`, the concentration for a half-maximal effect (EC50) (on Streptokinase A; in the assay on Streptococcus; in assay [1]) was > 150 µM (not active) throughout.

For `CCOc1ccc(-n2c(C)cc(/C=N/N(C)C)c2C)cc1`, the EC50 in assay [2] is 0.843 µM (active); in assay [3], > 30 µM (not active).

As to `CN1c2ccc([N+](=O)[O-])cc2CC2(C(=O)NC(=O)N(c3ccccc3)C2=O)C1c1ccccc1` (stereo not given), the figures for the EC50 in assay [2] and in assay [3] were 1.94 µM (active) and > 60 µM (not active), respectively.

With `O=c1c([N+](=O)[O-])cc(C(F)(F)F)cn1Cc1c(Cl)cccc1Cl`, the concentration at half-maximal activity (AC50) is 25.1 µM (inconclusive) on Cytochrome P450 2D6 and 22.4 µM (inconclusive) at Cytochrome P450 2C9.

For `COc1ccccc1CNc1ccc2c(c1)CCC2`, the EC50 in assay [2] was 2.21 µM (active); in assay [3], > 60 µM (not active).

Consider `COc1ccc([C@@H](Nc2ncccn2)c2cc3c(cc2O)OCO3)cc1`, for which, at Cytochrome P450 2D6, the AC50 was 6.31 µM (inconclusive).

On to `COc1ccc(-c2nc(NC(C)=O)sc2-c2ccc(OC)cc2)cc1`, for which the figures for the EC50 (at Streptokinase A; in the assay with Streptococcus; in assay [1]) were 3.44 µM (active), 14.6 µM (active) and 6.7 µM (active), respectively.

For the compound `COc1ccc(C(=O)NC(=S)Nc2ccc(N3CCOCC3)c(Cl)c2)cc1[N+](=O)[O-]`, the results for the concentration for a half-maximal effect (EC50) (at Streptokinase A; with Streptococcus; in assay [1]) were > 150 µM (not active), 19.3 µM (active) and 1.73 µM (active), respectively.

As for `CCOC(=O)c1sc2ncnc(N3CCN(c4ccc(OC)cc4)CC3)c2c1C`, the EC50 at Streptokinase A was > 150 µM (not active); with Streptococcus it was > 150 µM (not active); in assay [1], 7.62 µM (active).

For the compound `CC(C)CN1CCC2(CC1)CCN(C(=O)Oc1ccccc1)CC2`, the concentration at half-maximal activity (AC50) on Cytochrome P450 2D6 is 20 µM (inconclusive).

In the case of `CCCCNC(=O)c1ccc(NC(C)=O)c(Cl)c1`, the EC50 (at Streptokinase A; in the assay on Streptococcus; in assay [1]) was > 150 µM (not active) each time.

Take `CC1CCC(C(C)C)C(OC(=O)C[n+]2cc(-c3ccc(Cl)cc3)n3c2CCC3)C1` (stereo not given): the EC50 in assay [2] is 0.144 µM (active); in assay [3], > 60 µM (not active).

`CCCOc1ccc(C(=O)NC(=S)N2CCN(c3cc4c(cc3F)c(=O)c(C(=O)O)cn4CC)CC2)cc1`: the EC50 in the assay with Streptococcus is 6.47 µM (active); in assay [1], 4.62 µM (active).

Take `COC(=O)c1cc(-c2ccc(Br)cc2)c2c(=O)[nH]c(=O)n(C)c2n1`: the concentration giving a half-maximal response (EC50) in the assay on Streptococcus is 5.63 µM (active); in assay [1] it was 2.45 µM (active).

For `CN(C)c1ccc(C2SCCN2C(=O)c2ccc([N+](=O)[O-])cc2)cc1` (stereo not given), the EC50 in assay [2] is 0.874 µM (active); in assay [3], > 30 µM (not active).

For the compound `NC(=O)C1(NC(=O)[C@@H]2CC3(CC(c4cccc(NC(=O)c5cc([N+](=O)[O-])cc([N+](=O)[O-])c5)c4)=NO3)CN2C(=O)c2ccccc2)CC1` (stereo not given in full), the half-maximal activity concentration (AC50) on Cytochrome P450 2C9 was 11.2 µM (inconclusive).

As for `C/C(=N/NS(=O)(=O)c1ccc(C)cc1)c1cccc(NC(=O)c2cccc(Cl)c2)c1`, on Cytochrome P450 2D6, the concentration at half-maximal activity (AC50) is 4.47 µM (inconclusive).

For the compound `O=C(CC(=O)c1ccncc1)c1ccccc1`, the half-maximal activity concentration (AC50) on Cytochrome P450 2D6 is 1.58 µM (inconclusive); at Cytochrome P450 2C9 it was 2 µM (inconclusive).

As to `COc1cnc(-c2ccccc2)nc1Oc1cccc(C)c1`, the concentration at half-maximal activity (AC50) at Cytochrome P450 2C9 is 39.8 µM (inconclusive).

As for `COc1ccc(C(=O)N2CCC3(CCN(Cc4ccccc4OC)CC3)CC2)cc1`, at Cytochrome P450 2D6, the half-maximal activity concentration (AC50) was 12.6 µM (inconclusive).

With `Cc1ccc(Sc2ccc(CN3CCCC3)cc2[N+](=O)[O-])cc1`, the concentration giving a half-maximal response (EC50) is 0.206 µM (active) in assay [2] and > 60 µM (not active) in assay [3].

On to `Cc1sc(NC(=O)Cc2ccc3c(c2)OCO3)nc1-c1ccc2c(c1)CCN2C(=O)c1ccccc1F`, for which the 50% effective concentration (EC50) in assay [2] is 1.69 µM (active); in assay [3], > 60 µM (not active).

In the case of `Cc1ccc2ncc([N+](=O)[O-])n2c1`, on Cytochrome P450 2C9, the AC50 was 0.708 µM (inconclusive).

`COc1ccccc1N1CC(C(=O)Nc2nnc(SCC(=O)NCC3CCCO3)s2)CC1=O` (stereo not given): the EC50 (at Streptokinase A; in the assay on Streptococcus; in assay [1]) was > 150 µM (not active) in each case.

For `CCCCCCCNC(=O)C1(CC2CC(c3cccc(Br)c3)=NO2)CCN(C(=O)c2ccccc2)CC1` (stereo not given), the values for the 50% effective concentration (EC50) in assay [2] and in assay [3] were 2.62 µM (active) and > 60 µM (not active), respectively.

Turning to `COC(=O)c1sc(N/N=C/c2ccc(C(C)C)cc2)nc1C`, the values for the EC50 in assay [2] and in assay [3] were 2.06 µM (active) and > 60 µM (not active), respectively.

For the compound `COc1cc(C=O)ccc1OCCOCCOc1ccccc1Cl`, the half-maximal activity concentration (AC50) at Cytochrome P450 2D6 was 20 µM (inconclusive).

Turning to `CNc1cc(-c2ccccc2C)ncn1`, the AC50 at Cytochrome P450 2D6 was 39.8 µM (inconclusive).

For `Cc1cccc(C)c1NC(=O)C(NC=O)c1ccccc1Cl` (stereo not given), the half-maximal activity concentration (AC50) on Cytochrome P450 2C9 was 12.6 µM (inconclusive).

As for `CC(C)c1csc(CN2CCC(CO)(Cc3ccccc3)CC2)n1`, the half-maximal effective concentration (EC50) in assay [2] was 0.891 µM (active); in assay [3] it was > 60 µM (not active).
